From US20230044787A1, “TRICYCLE DIHYDROIMIDAZOPYRIMIDONE DERIVATIVE, PREPARATION METHOD THEREOF, PHARMACEUTICAL COMPOSITION AND USE THEREOF” (priority 2019, published 2023)

target: T1, Lp-PLA2 (Homo sapiens, UniProt Q13093); test: Lipoprotein-associated phospholipase A2 (Lp-PLA2) human plasma assay (Thio-PAF assay); type: biochemical; settings: Lp-PLA2 human plasma assay (Thio-PAF), pooled human plasma, 30-min pre-incubation at room temperature
T1 construct: aliquoted and thawed 40 μL of pooled human plasma was previously added; from tissue; host or cells: pooled human plasma
T1 sequence (Q13093 22-441): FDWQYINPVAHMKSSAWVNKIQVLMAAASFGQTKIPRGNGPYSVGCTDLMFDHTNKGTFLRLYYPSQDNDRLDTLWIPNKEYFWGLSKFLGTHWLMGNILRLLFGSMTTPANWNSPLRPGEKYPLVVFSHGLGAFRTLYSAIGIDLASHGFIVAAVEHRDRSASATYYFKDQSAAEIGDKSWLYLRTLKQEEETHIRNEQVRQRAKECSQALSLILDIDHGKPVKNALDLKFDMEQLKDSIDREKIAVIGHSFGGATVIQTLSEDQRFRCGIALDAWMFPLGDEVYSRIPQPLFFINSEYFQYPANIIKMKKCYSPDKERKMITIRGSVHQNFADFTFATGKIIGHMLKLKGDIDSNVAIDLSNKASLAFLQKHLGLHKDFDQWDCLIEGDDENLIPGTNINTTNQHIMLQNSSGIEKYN

Compound | IC50 [nM]
O=c1nc(OCc2cc(F)c(Oc3ccnc(Cl)c3)c(F)c2)cc2n1CC13CC(CN21)C3 [Example 38, 3-((4-((2-chloropyridin-4-yl)oxy)-3,5-difluorobenzyl)oxy)-7,8-dihydro-1H,6H,9H-7,8a-methanopyrrolo[1′,2′:3,4] imidazo[1,2-c]pyrimidin-1-one] | 8.5
O=c1nc(OCc2ccc(Oc3cccc(C(F)(F)F)c3)c(F)c2)cc2n1CC13CC(CN21)C3 [Example 124, 3-((3-fluoro-4-(3-(trifluoromethyl)phenoxy)benzyl)oxy)-7,8-dihydro-1H,6H,9H-7,8a-methanopyrrolo[1′,2′:3,4] imidazo[1,2-c]pyrimidin-1-one] | 6.1
Cc1c(OCc2cc(F)c(Oc3ccnc(C(F)(F)F)c3)c(F)c2)nc(=O)n2c1N1C[C@@H]3C[C@]1(CO3)C2 [Example 92, (3S,11aR)-7-((3,5-difluoro-4-((2-(trifluoromethyl)pyridin-4-yl)oxy)benzyl)oxy)-6-methyl-3,4-dihydro-1H,9H,11H-3,11a-methanopyrimido[6′,1′:2,3] imidazo[5,1-c][1,4]oxazin-9-one] | 5.6
N#CC12CN3c4cc(OCc5ccc(Oc6ccnc(C(F)(F)F)c6)c(F)c5)nc(=O)n4CC3(C1)C2 [Example 200, 3-((3-fluoro-4-((2-(trifluoromethyl)pyridin-4-yl)oxy)benzyl)oxy)-1-oxo-1H,6H,9H-7,8a-methanopyrrolo[1′,2′:3,4]imidazo[1,2-c] pyrimidine-7(8H)-carbonitrile] | 4.4
N#Cc1cc(Oc2ccc(COc3cc4n(c(=O)n3)CC35CC(CN43)C5)cc2F)cc(C(F)(F)F)c1 [Example 95] | 7.4
N#Cc1c(OCc2cc(F)c(Oc3ccnc(C(F)(F)F)c3)c(F)c2)nc(=O)n2c1N1C[C@@H]3C[C@]1(CO3)C2 [Example 102, (3S,11aR)-7-((3,5-difluoro-4-((2-(trifluoromethyl)pyridin-4-yl)oxy)benzyl)oxy)-6-cyano-3,4-dihydro-1H,9H,11H-3,11a-methanopyrimido[6′,1′:2,3] imidazo[5,1-c][1,4]oxazin-9-one] | 7.6
O=c1nc(OCc2cc(F)c(Oc3ccnc(C(F)(F)F)c3)c(F)c2)c(F)c2n1C[C@]13CO[C@H](CN21)C3 [Example 88, (3S,11aR)-7-((3,5-difluoro-4-((2-(trifluoromethyl)pyridin-4-yl)oxy)benzyl)oxy)-6-fluoro-3,4-dihydro-1H,9H,11H-3,11a-methanopyrimido[6′,1′:2,3] imidazo[5,1-c][1,4]oxazin-9-one] | 5.2
CN1C(=O)[C@]23C[C@H]1CN2c1cc(OCc2cc(F)c(Oc4cnn(C)c4)c(F)c2)nc(=O)n1C3 [Example 167, (3S,11aR)-7-((3,5-difluoro-4-((1-methyl-1H-pyrazol-4-yl)oxy)benzyl)oxy)-2-methyl-3,4-dihydro-9H,11H-3,11a-methanopyrazino[1′,2′:3,4] imidazo[1,2-c]pyrimidine-1,9(2H)-dione] | 19.4
O=c1nc(OCc2ccc(Oc3cncc(C(F)(F)F)c3)c(F)c2)cc2n1CC13CC(CN21)C3 [Example 148, 3-((3-fluoro-4-((5-(trifluoromethyl)pyridin-3-yl)oxy)benzyl)oxy)-7,8-dihydro-1H,6H,9H-7,8a-methanopyrrolo[1′,2′:3,4] imidazo[1,2-c]pyrimidin-1-one] | 4.3
O=c1nc(OCc2cc(F)c(Oc3cnc(C(F)(F)F)nc3)c(F)c2)cc2n1CC13CCC(CC1)N23 [Example 47, 3-((3,5-difluoro-4-((2-(trifluoromethyl)pyrimidin-5-yl)oxy)benzyl)oxy)-7,8-dihydro-1H,6H,9H-6,8a-ethanopyrrolo[1′,2′:3,4] imidazo[1,2-c]pyrimidin-1-one] | 9.4
O=c1nc(OCCc2ccc(Oc3ccc(Cl)c(C(F)(F)F)c3)c(F)c2)cc2n1C[C@]13CO[C@H](CN21)C3 [Example 185] | 4.7
NC12CN3c4cc(OCc5ccc(Oc6ccnc(C(F)(F)F)c6)c(F)c5)nc(=O)n4CC3(C1)C2 [Example 202, 7-Amino-3-((3-fluoro-4-((2-(trifluoromethyl)pyridin-4-yl)oxy)benzyl)oxy)-7,8-dihydro-1H,6H,9H-7,8a-methanopyrrolo[1′,2′:3,4]imidazo[1,2-c]pyrimidin-1-one] | 1.9
O=c1nc(OCc2ccccc2F)cc2n1CC13CC(CN21)C3 [Example 44, 3-((2-fluorobenzyl)oxy)-7,8-dihydro-1H,6H,9H-7,8a-methanopyrrolo[1′,2′:3,4] imidazo[1,2-c]pyrimidin-1-one] | 342
CC12COCCN1c1cc(OCc3ccc(Oc4ccc(Cl)c(C(F)(F)F)c4)c(C#N)c3)nc(=O)n1C2 (stereo not shown) [Example 84] | 6.2
O=c1nc(OCCc2ccc(Oc3ccc(Cl)c(C(F)(F)F)c3)cc2)cc2n1C[C@]13CO[C@H](CN21)C3 [Example 23, (3S,11aR)-7-(4-(4-chloro-3-(trifluoromethyl)phenoxy)phenethoxy)-3,4-dihydro-1H,9H,11H-3,11a-methanopyrimido[6′,1′:2,3] imidazo[5,1-c][1,4]oxazin-9-one] | 5
O=C1N(Cc2ccccc2)[C@@H]2CN3c4cc(OCc5cc(F)c(Oc6ccnc(C(F)(F)F)c6)c(F)c5)nc(=O)n4C[C@]13C2 [Example 131] | 7.9
COc1c(OCc2cc(F)c(F)c(F)c2)nc(=O)n2c1N1C[C@@H]3C[C@]1(CO3)C2 [Example 114, (3S,11aR)-7-((3,4,5-trifluorobenzyl)oxy)-6-methoxy-3,4-dihydro-1H,9H,11H-3,11a-methanopyrimido[6′,1′:2,3] imidazo[5,1-c][1,4]oxazin-9-one] | 5.7
O=c1nc(OCc2ccc(F)c(F)c2)cc2n1C[C@]13CO[C@H](CN21)C3 [Example 25, (3S,11aR)-7-((3,4-trifluorobenzyl)oxy)-3,4-dihydro-1H,9H,11H-3,11a-methanopyrimido[6′,1′:2,3] imidazo[5,1-c][1,4]oxazin-9-one] | 10.4
CC12CCCN1c1cc(OCc3ccc(Oc4ccc(C(F)(F)F)cc4)c(C#N)c3)nc(=O)n1C2 (stereo not shown) [Example 60, 5-(((8a-methyl-1-oxo-7,8,8a,9-tetrahydro-1H,6H-pyrrolo[1′,2′:3,4]imidazo [1,2-c]pyrimidin-3-yl)oxy)methyl)-2-(4-(trifluoromethyl)phenoxy) benzonitrile] | 6.6
O=c1nc(OCc2ccc(Oc3ccc(F)c(F)c3)c(F)c2)cc2n1C[C@]13CO[C@H](CN21)C3 [Example 146, (3S,11aR)-7-((4-(3,4-difluorophenoxy)-3-fluorobenzyl)oxy)-3,4-dihydro-1H,9H,11H-3,11a-methanopyrimido[6′,1′:2,3] imidazo[5,1-c][1,4]oxazin-9-one] | 2.7
O=c1nc(OCCc2ccc(Oc3cccc(C(F)(F)F)c3)c(F)c2)cc2n1CC13CC(CN21)C3 [Example 182, 3-(3-fluoro-4-(3-(trifluoromethyl)phenoxy)phenethoxy)-7,8-dihydro-1H,6H,9H-7,8a-methanopyrrolo[1′,2′:3,4]imidazo[1,2-c] pyrimidin-1-one] | 9.4
O=c1nc(OCc2cc(F)c(Oc3ccnc(C(F)(F)F)c3)c(F)c2)cc2n1CC13CC(CN21)C3 [Example 36, 3-((3,5-difluoro-4-((2-(trifluoromethyl)pyridin-4-yl)oxy)benzyl)oxy)-7,8-dihydro-1H,6H,9H-7,8a-methanopyrrolo[1′,2′:3,4] imidazo[1,2-c]pyrimidin-1-one] | 9.6
